In US20100189783A1, “RELATING TO ANTI-HIV TABLET FORMULATIONS” (priority 2007, published 2010):

Assay: particle size (dv10) of darunavir after drying
Format: physicochemical
Conditions: 10% (volume %) of particles smaller than value
Method: The active ingredient darunavir ethanolate used in the marketed 300 mg tablet formulation has been manufactured by a process which includes a drying process in which the particulate darunavir is dried on trays, i.e. a static process. However, in order to provide a higher manufacturing throughput and improved safety for the operators, it is desirable to replace the static drying with a tumble drying operation involving drying in a revolving container. Such a change in the drying operation however has a significant effect on the physical characteristics of the particles of the darunavir. In this case the tumble drying of the particles results in a reduction in the dv10 value (dv10 means that 10% (volume %) of the particles has a diameter smaller than the specified value) from approximately 80 microns to approximately 35 microns. […] It will be appreciated that good blend flow and good tablet properties such as weight uniformity and appropriate visual appearance, without any defects, are essential in a large-scale industrial manufacturing process to maximise throughput and ensure consistent and efficient processing of the material.

CC(C)CN(C[C@@H](O)[C@H](Cc1ccccc1)NC(=O)O[C@H]1CO[C@H]2OCC[C@H]21)S(=O)(=O)c1ccc(N)cc1 [darunavir, [(1S,2R)-3-[[(4-aminophenyl)sulfonyl](2-methylpropyl)amino]-2-hydroxy-1-(phenylmethyl)propyl]-carbamic acid (3R,3aS,6aR)hexahydrofuro[2,3-b]furan-3-yl ester]
dv10 value (after tumble drying): approximately 35 microns
dv10 value (static drying on trays): approximately 80 microns
